Source: patent US8466340B2, “Mouse model for pompe disease and methods of use thereof” (Amicus Therapeutics, Inc., priority 2009, dated 2013)
Structures can show the parent of a compound that is named as a salt.

Key:
[1] = target: T1, hP545L GAA (Homo sapiens, UniProt P10253, P545L); assay: Biochemical assay for determining GAA level in tissues of DNJ-dosed hP545L GAA Tg/KO mice; assay type: in vivo; conditions: 'Moderate' hP545L GAA Tg/KO mice; DNJ 30, 100, 300 mg/kg/day oral ad libitum in drinking water, 4 weeks; disease-relevant tissues
Description: (§1) Mice were euthanized with CO2 and body weights were recorded. […] Plasma was collected by spinning blood at 2700 g for 10 minutes at 4° C. Heart, diaphragm, gastrocnemius, soleus, skin, and brain tissues were removed, washed in cold PBS, blotted dry, and weighed before storing on dry ice. For biochemical assays (GAA activity, glycogen and Western blotting), lysates were prepared by homogenizing ˜50 mg tissue for 3-5 seconds on ice with a micro homogenizer in 200 μL Lysis Buffer (25 mM Bis-Tris pH 6.5, 150 mM NaCl, 1% Triton X-100 pH 6.5). For histology assays, tissues were harvested and fixed immediately in 3.7% Formaldehyde/90% Ethanol mix. After fixation, the samples were processed in various grades (10, 20, 50, 75, 100%) of alcohol and embedded in paraffin.
(§2) The dosing solutions were made fresh each week and water consumption was monitored daily.
(§3) After dosing was completed, mice were euthanized and plasma samples as well as tissue samples harvested as described above.

[2] = target: T1, hP545L GAA; assay: GAA protein level by Western blotting in tissues of DNJ-dosed hP545L GAA Tg/KO mice; assay type: in vivo; conditions: 'Moderate' hP545L GAA Tg/KO mice; DNJ 30, 100, 300 mg/kg/day oral, 4 weeks; disease-relevant tissues
Description: as §1
Tissue lysates (50 μg total protein per lane) were subjected to SDS-PAGE on 12% gels (Bio-Rad, Hercules, Calif.), transferred to PVDF membranes (Bio-Rad), and immunoblotted with a rabbit anti-human GAA (kind gift of Dr. Barry Byrne) polyclonal antibody (1:500 dilution). Protein bands were detected using peroxidase-conjugated goat anti-rabbit secondary antibodies (1:1000) (Jackson Immunosearch Labs, West Grove, Pa.) in combination with enhanced chemiluminescence (Pierce). […]
as §2

[3] = test system: hP545L GAA Tg/KO mice; assay: Biochemical assay for determining glycogen level (amyloglucosidase digestion) in tissues of DNJ-dosed hP545L GAA Tg/KO mice; assay type: in vivo, mouse; conditions: 'Moderate' hP545L GAA Tg/KO mice
Description: as §1
Tissue glycogen levels were measured in supernatants of heat denatured (99° C. for 10 min.) lysates as prepared above for GAA assay. Samples were analyzed in duplicates by adding 4 μL of lysate to 36 μL water with and without 10 μL of 800 units/mL of amyloglucosidase enzyme (Sigma) and incubated for 1 hour at 50° C. The reaction was stopped by heat inactivation at 100° C. for 10 min. Finally 200 μL of glucose reagent was added to estimate the amount of glucose released at 340 nm absorbance on Spectramax. A glycogen standard curve ranging from 400 μg/mL to 5 μg/mL was run each day for conversion of absorbance data to absolute glycogen levels. Data are ultimately expressed as μg of glycogen cleaved/milligram of protein. The protein levels were measured in lysates (before denaturing) using Micro BCA Protein Assay Kit according to the manufacturer's instructions.
as §2, §3
Mice were orally dosed (ad libitum in drinking water) either daily or using one of three less-frequent on/off regimens (i.e., (i) 3 days on/4 days off; (ii) 5 days on/2 days off; or (iii) 7 days on/7 days off). […] The dosing solution was made fresh each week and water consumption was monitored daily.
After dosing was completed, mice were euthanized and tissue samples harvested as described above.

[4] = test system: mutant forms of GAA in Pompe patient-derived fibroblasts; assay: Level of mutant GAA in Pompe patient-derived fibroblasts; assay type: cell-based, human; conditions: data not shown
[5] = test system: mutant forms of recombinant human GAA in COS-7 cells; assay: Level of mutant GAA in transiently-transfected COS-7 cells; assay type: cell-based; conditions: COS-7 cells transiently-transfected with recombinant human GAA; data not shown
[6] = target: recombinant human GAA (Homo sapiens, UniProt P10253); assay: Binding to and thermostability of recombinant human GAA in vitro; conditions: data not shown
[7] = test system: mutated form of GAA (M519V, P545L, G549R, L552P) in HEK293 cells; assay: GAA activity, protein and processing in HEK293 cells transiently-transfected with mutated GAA; assay type: cell-based; conditions: data not shown
[8] = target: T2, GAA (Mus musculus, UniProt P70699); assay: GAA activity, protein and processing in mice administered DNJ orally; assay type: in vivo; conditions: data not shown
T2 construct: from tissue

[9] = test system: GAA; assay: GAA activity, protein and processing in monkeys administered DNJ orally; assay type: in vivo, cynologous monkeys; conditions: cynomolgus monkeys, data not shown
[10] = target: T3, alpha-galactosidase (Mus musculus, UniProt P51569); assay: Specificity: alpha-galactosidase in mice administered DNJ; assay type: in vivo; conditions: data not shown
T3 construct: from tissue
T3 sequence (P51569 32-419): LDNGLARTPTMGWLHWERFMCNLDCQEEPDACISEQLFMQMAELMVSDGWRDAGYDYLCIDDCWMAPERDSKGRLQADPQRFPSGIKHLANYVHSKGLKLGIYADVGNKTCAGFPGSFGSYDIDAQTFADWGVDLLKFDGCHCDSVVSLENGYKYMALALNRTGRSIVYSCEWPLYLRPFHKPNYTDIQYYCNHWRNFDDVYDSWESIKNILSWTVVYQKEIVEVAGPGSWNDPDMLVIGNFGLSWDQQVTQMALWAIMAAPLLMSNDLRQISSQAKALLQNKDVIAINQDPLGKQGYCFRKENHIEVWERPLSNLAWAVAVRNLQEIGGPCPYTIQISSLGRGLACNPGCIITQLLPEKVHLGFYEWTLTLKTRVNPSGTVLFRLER

[11] = target: human GAA missense mutations (Homo sapiens, UniProt P10253, P545L); assay: In vitro studies to identify a human GAA missense mutation responsive to DNJ; assay type: cell-based; conditions: 5-day incubation with DNJ, data not shown
[12] = test system: human GAA missense mutations; assay: as above; assay type: cell-based; conditions: data not shown
[13] = Half-life of DNJ; conditions: stated within a theory on/off dosing, compared to GAA (days); no method
[14] = DNJ 30, 100, 300 mg/kg/day oral, 4 weeks

T2 sequence (P70699 70-953): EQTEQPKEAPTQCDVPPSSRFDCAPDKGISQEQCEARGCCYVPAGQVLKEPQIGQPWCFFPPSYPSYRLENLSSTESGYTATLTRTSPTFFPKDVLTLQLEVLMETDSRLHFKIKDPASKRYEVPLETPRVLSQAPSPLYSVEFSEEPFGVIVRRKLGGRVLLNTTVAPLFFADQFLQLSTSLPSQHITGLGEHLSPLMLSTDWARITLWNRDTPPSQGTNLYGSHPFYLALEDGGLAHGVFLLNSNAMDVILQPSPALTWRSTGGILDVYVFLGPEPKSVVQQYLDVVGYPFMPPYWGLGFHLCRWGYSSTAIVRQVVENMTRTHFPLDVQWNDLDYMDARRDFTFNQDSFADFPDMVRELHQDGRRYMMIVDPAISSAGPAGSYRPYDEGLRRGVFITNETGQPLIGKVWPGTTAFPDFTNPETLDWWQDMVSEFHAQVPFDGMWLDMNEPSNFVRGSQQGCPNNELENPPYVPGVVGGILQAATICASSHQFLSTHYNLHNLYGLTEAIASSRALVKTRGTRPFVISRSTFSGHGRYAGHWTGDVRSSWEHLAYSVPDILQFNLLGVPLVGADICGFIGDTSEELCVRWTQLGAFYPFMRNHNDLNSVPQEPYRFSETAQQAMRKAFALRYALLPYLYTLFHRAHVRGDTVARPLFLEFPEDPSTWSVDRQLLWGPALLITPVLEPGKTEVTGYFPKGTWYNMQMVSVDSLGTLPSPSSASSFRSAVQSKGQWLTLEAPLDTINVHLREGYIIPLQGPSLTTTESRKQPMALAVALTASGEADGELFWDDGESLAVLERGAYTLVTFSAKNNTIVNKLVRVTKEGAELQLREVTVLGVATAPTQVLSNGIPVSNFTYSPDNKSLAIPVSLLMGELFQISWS

## OC[C@H]1NC[C@H](O)[C@@H](O)[C@@H]1O [DNJ, 1-deoxynojirimycin-HCl]
[1]
  GAA levels (tissue GAA activity): significant and dose-dependent increase
[2]
  GAA protein levels: significant and dose-dependent increase
  processing of GAA protein to its 76 kDa mature form: significant and dose-dependent increase
[3]; 100 mg/kg/day oral, 4 weeks, p<0.05 daily vs. on/off
  glycogen reduction, on/off regimens compared to daily dosing: greater glycogen reduction
[3]; 100 mg/kg/day oral, daily or on/off (3/4, 5/2, 7/7 days), 4 weeks, majority of tissues examined, p<0.05 vs. untreated
  glycogen levels in disease-relevant tissue: significant reduction
[3]; [14]
  glycogen levels of brain: robust reduction
  glycogen levels of diaphragm: moderate reduction
  glycogen levels of gastrocnemius: moderate reduction
  glycogen levels of heart: moderate reduction
  glycogen levels of skin: robust reduction
  glycogen levels of soleus: robust reduction
[3]; four-week oral administration (ad libitum), tissues overall
  tissue glycogen levels: decrease
[4]
  level of multiple different mutant forms of GAA: significantly increase
[5]
  level of multiple different mutant forms of GAA: significantly increase
[6]
  binding to GAA: directly bind
  thermostability of recombinant human GAA: concentration-dependent increase
[7]
  GAA processing to the 95-, 76-, and 70-kDa forms: increase
  GAA protein levels: increase
  level of GAA activity: increase
[8]
  GAA protein levels: increased
  processing to the 70-kDa mature form of GAA: increased
[8]; oral
  GAA activity: increase in a dose-dependent manner
[9]; oral
  GAA activity: increase in a dose-dependent manner
[9]
  GAA protein levels: increased
  processing to the 70-kDa mature form of GAA: increased
[10]
  alpha-galactosidase activity: no increase
[11]
  GAA activity, P545L mutation: robust, reproducible, dose-dependent and statistically-significant increase
[12]
  responsiveness of P285R, E262K, E579K GAA mutations to DNJ: even more responsive than P545L
[13]
  half-life of DNJ: hours
